Data set [1] concerns stroke rats (MCAo). Briefly: ANA12 antagonism of psilocybin-mediated neuroprotection in MCAo stroke rats. It is filed as in vivo, rat.
Data set [2] relates to primary cortical neuronal culture. Briefly: ANA12 antagonism of psilocybin-mediated protection in primary cortical neuronal culture. The conditions noted are these: Glu 100 μM + Psi 10 μM + ANA 10 μM; p<0.05, one-way ANOVA.
From the text: A selective BDNF antagonist ANA12 was included on D10 along with psilocybin and glutamate (see timeline in FIG. 6C).
Data set [3] concerns stroke rats (MCAo). Briefly: Pre-stroke i.c.v. treatment, brain infarction by TTC staining in MCAo stroke rats. The format is in vivo, rat. Particulars: i.c.v. pretreatment, day 2.
Data set [4] relates to MAP2, synaptophysin (SYP), IBA1, and BDNF expression. Briefly: Post-stroke i.p. treatment, qRT-PCR of lesioned cerebral cortex. The conditions noted are these: 1 mg/kg/d i.p. days 3-7, cortex day 9. It is filed as in vivo, rat. (In general: Quantitative PCR measures a nucleic acid by following its amplification.)
The conditions of data set [5]: non-lesioned brain; cited from earlier work.
Data set [6] has as its system stroke rats (MCAo). Briefly: Post-stroke i.p. treatment, neurological and locomotor tests in MCAo stroke rats. Particulars: 1 mg/kg/d i.p. days 3 to 7 after MCAo.
Method: In the posttreatment group, Psilocybin (1 mg/kg/day, n=7) or vehicle (n=6) was administered i.p. from day 3 to day 7.
(b) Neurological deficits were scored by the Bederson's neurological test (35, 36). In a postural reflex test, rats were examined for the degree of abnormal posture when suspended by 20-30 cm above the testing table. They were scored according to the following criteria. • 0 Rats extend both forelimbs straight. No observable deficit. • 1 Rats keep the one forelimb to the breast and extend the other forelimb straight. • 2 Rats show decreased resistance to lateral push in addition to behavior in score 1 without circling. • 3 Rats twist the upper half of their body in addition to behavior in score 2.
(§1) Locomotion was measured using an infrared activity monitor (Accuscan, Columbus, OH) as we previously described (19, 37). Rats were individually placed in a 3D infrared behavior chamber (42×42×21 cm) for 60 min. Four parameters were recorded: (a) horizontal activity (HACTV, the total number of beam interruptions that occurred in the horizontal sensors), (b) total distance traveled (TOTDIST, the distance, in centimeters, traveled by the animals), and (c) No. of movements (MOVNO), (d) horizontal movements time (MOVTIME).
Psilocybin (1 mg/kg/d, n=7) or vehicle (n=6) was delivered systemically (i.p.) from days 3 to 7 after the MCAo. Neurological and locomotor tests were examined on day 9 (FIG. 4A).
The subject of data set [7] is stroke rats (MCAo). Briefly: Pre-stroke i.c.v. treatment, neurological and locomotor tests in MCAo stroke rats. The conditions noted are these: D2.
Method: Psilocybin or vehicle was given before or after the MCAo. For the pretreatment, animals were anesthetized. Psilocybin (100 μM×20 μL, n=7) or vehicle (saline, 20 μl, n=7) was administered intracerebroventricularly (i.c.v., AP, −0.8 mm; LV, −1.5 mm; DV, −3.5 mm) at 15 min before MCAo through a Hamilton microsyringe. The speed of injection was controlled by a syringe pump (Micro 4, WPI, Sarasota, FL).
The right middle cerebral artery (MCA) was transiently occluded (MCAo) as we previously described (33). In brief, the bilateral common carotids were clamped with nontraumatic arterial clips. The right MCA was ligated with a 10-O suture to generate focal infarction in the cerebral cortex. The ligature and clips were removed after 60 min ischemia to generate reperfusion injury. Core body temperature was monitored with a thermistor probe and maintained at 37° C. with a heating pad during anesthesia. After recovery from anesthesia, body temperature was maintained at 37° C. using a temperature-controlled incubator.
as §1
A total of 14 adult rats were used for this analysis. Psilocybin (100 μM×20 μL, n=7) or vehicle (saline, 20 μL, n=7) was delivered to the lateral ventricle (i.c.v., coordinates: AP:0.8 mm, Lat:1.5 mm, DV −3.5 mm) at 10-15 min prior to the a 60-min MCAo. Behavioral tests were conducted two days (or D2) after MCAo (FIG. 2A). […] Locomotoractivity was examined in infra-red activity chambers for one hour.
Data set [8] relates to rat primary cortical neuronal culture. Kind of data set: Glutamate neurotoxicity in primary cortical neuronal culture (MAP2 immunocytochemistry).
In data set [9] the test system is rat model of stroke (MCAo). The conditions noted are these: intraperitoneal injection prior to MCAo; cited from earlier work.
Setting [10] is: ANA12 100 μM×20 μL/d intranasally days 0 and 1, Psilocybin i.c.v. prior to MCAo.
The mark [11] stands for this setting: stroke reduced expression, p<0.05.

The text below walks through data of patent publication US20250352563A1, “Method and Use of Psilocybin in the Prevention and Treatment of Stroke” (Revive Therapeutics Ltd, priority 2022, published 2025).

Turning to `O=C(Nc1ccccc1C(=O)NC1CCCCNC1=O)c1cc2ccccc2s1` (centres unmarked) [ANA12], in the data set on stroke rats (MCAo) [1] (setting [10]), the “Psilocybin-mediated improvement in horizontal activity” value is listed as “significantly antagonized”, the “Psilocybin-mediated improvement in total distance traveled” value was “significantly antagonized” and the “psilocybin-mediated improvement in neurological behavior” value is recorded as “significantly antagonized”. In addition, the “psilocybin-mediated reduction in brain infarction” value with stroke rats (MCAo) [1] (ANA12 100 μM×20 μL/d intranasally days 0 and 1 after MCAo, Psilocybin i.c.v. 100 μM×20 μl 15 min prior) is reported as “significantly antagonized”. The “psilocybin-mediated improvement in MAP2-ir” value in data set [2] is given as “significantly antagonized”.

`CN(C)CCc1c[nH]c2cccc(OP(=O)(O)O)c12` [Psilocybin, 4-phosphoryloxy-N,N-dimethyltryptamine]: the “area of infarction in each 2-mm slice” value with stroke rats (MCAo) [3] (p<0.001, two-way ANOVA, difference mainly on rostral slices) was “significantly lowered infarction”. The “infarct volume (TTC staining)” value in the data set with stroke rats (MCAo) [3] (typical TTC staining FIG. 3A) is on record as “reduced the infarct volume”. In addition, the “expression of BDNF in the lesioned brain (qRTPCR)” value in data set [4] (p=0.01, stroke vs. stroke+PSI) is “significantly upregulated”. Moreover, in data set [4] (setting [11]), the “expression of MAP2 in the stroke brain (qRTPCR)” value was “significantly normalized” and the “expression of synaptophysin (SYP) in the stroke brain (qRTPCR)” value was “significantly normalized”. The “expression of IBA1 in the stroke brain (qRTPCR)” value in data set [4] (stroke upregulated expression, p<0.05) was “significantly normalized”. In addition, the “crossing of the blood-brain barrier” value in data set [5] is “inefficient to freely cross the blood-brain barrier”. The horizontal activity result with stroke rats (MCAo) [6] (day 9, p=0.011) is “increased”. In addition, the total distance traveled entry in the data set on stroke rats (MCAo) [6] (day 9, p=0.018) is reported as “increased”. The movement number entry in the data set on stroke rats (MCAo) [6] (day 9, p=0.023) is on record as “increased”. In addition, the movement time entry with stroke rats (MCAo) [6] (day 9, p=0.034) is given as “increased”. Further, in the data set with stroke rats (MCAo) [6] (day 9, p=0.0445), the body asymmetry result was “significantly reduced”. Besides, the “Bederson's neurological test” value in the data set on stroke rats (MCAo) [6] (tested day 9, p=0.0421) is “significantly reduced”. Further, the body asymmetry result with stroke rats (MCAo) [7] (100 μM×20 μL i.c.v. 10-15 min prior to MCAo, p=0.00345) is given as “significantly decreased”. Moreover, in the data set on stroke rats (MCAo) [7] (100 μM×20 μL i.c.v. prior to MCAo, one hour, p=0.0246), the “horizontal activity (HACTV)” value is recorded as “significantly increased”. The “movement time (MOVTIME)” value in the data set on stroke rats (MCAo) [7] (100 μM×20 μL i.c.v. prior to MCAo, p=0.00351) is “significantly increased”. For the same compound, the “total distance traveled (TOTODIST)” value in the data set on stroke rats (MCAo) [7] (100 μM×20 μL i.c.v. prior to MCAo, p=0.0103) is “significantly increased”. The “movement number (MOVNO)” value in the data set on stroke rats (MCAo) [7] (100 μM×20 μL i.c.v. prior to MCAo, p=0.0479) was “significantly increased”. In [8] (Glu 100 μM, Psi 10 μM, photomicrographs FIG. 1A), the “Glu-mediated neuronal loss (MAP2-ir)” value was “antagonized”.

`N[C@@H](CCC(=O)O)C(=O)O` [Glutamate]: the “MAP2 immunoreactivity (MAP2-ir)” value in data set [8] (Glutamate 100 μM added on DIV10, fixed DIV12, p<0.001) was “significantly reduced”.

As for `CN(C)CCc1c[nH]c2ccccc12` [DMT, N,N-dimethyltryptamine], in data set [9], the BDNF expression entry is “increased”, the brain infarction result is given as “reduced”, the brain inflammation entry was “reduced” and the staircase behavior result was “improved”.
